Counter-ions that a name gives are not always drawn.
Target: AaDOP2 (Aedes aegypti, UniProt H6D5H2)
Assay: AaDOP2 antagonist screen of the LOPAC1280 library (HEK-CRELuc-Aadop2 cells, luminescence)
Assay type: cell-based
Conditions: not given

Chain of AaDOP2 (H6D5H2 1-476): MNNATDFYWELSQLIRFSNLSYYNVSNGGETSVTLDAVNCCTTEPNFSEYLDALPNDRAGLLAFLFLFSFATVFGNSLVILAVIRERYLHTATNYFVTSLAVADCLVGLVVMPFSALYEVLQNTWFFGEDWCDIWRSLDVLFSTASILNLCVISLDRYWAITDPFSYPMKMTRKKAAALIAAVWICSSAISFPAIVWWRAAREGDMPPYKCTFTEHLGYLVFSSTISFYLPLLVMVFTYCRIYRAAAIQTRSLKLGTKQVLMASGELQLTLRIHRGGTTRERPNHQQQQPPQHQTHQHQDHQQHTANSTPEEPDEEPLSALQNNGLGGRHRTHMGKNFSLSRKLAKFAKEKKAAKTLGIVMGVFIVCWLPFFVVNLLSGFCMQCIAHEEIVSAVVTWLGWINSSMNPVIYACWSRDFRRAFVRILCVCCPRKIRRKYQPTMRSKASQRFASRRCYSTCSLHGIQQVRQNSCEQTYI

| Compound | Compound effect (percent receptor signaling in presence of test compound, relative lux units relative to the SCH23390 control) | % of the SCH23390 effect (percent inhibition of receptor response relative to the SCH23390 control) [%] |
| --- | --- | --- |
| Cl.N=C(N)NC(=N)Nc1cccc(Cl)c1 [Compound 339, 1-(m-Chlorophenyl)-biguanide hydrochloride] | 83 | – |
| Nc1nc(Cl)nc2c1ncn2[C@@H]1O[C@H](COP(=O)([O-])OP(=O)([O-])OP(=O)([O-])[O-])[C@@H](O)[C@H]1O.[Na+].[Na+].[Na+].[Na+] [Compound 340, 2-Chloroadenosine triphosphate tetrasodium] | 102 | – |
| Oc1cc2c(cc1O)CN(C(=S)NCCc1ccc(Cl)cc1)CCC2 [Compound 342, Capsazepine] | 69 | – |
| CN1C(=O)CCS(=O)(=O)C1c1ccc(Cl)cc1 (stereo not shown) [Compound 343, Chlormezanone] | 93 | – |
| Cn1c(=O)c2c(nc(C=Cc3cccc(Cl)c3)n2C)n(C)c1=O [Compound 344, 8-(3-Chlorostyryl)caffeine] | 91 | – |
| Nc1nc2ccc(Cl)cc2c2nc(-c3ccco3)nn12 [Compound 345, CGS-15943] | 117 | – |
| O=C[C@H](Cl)[C@@H](O)[C@H](O)[C@H](O)CO [Compound 346, 2-Chloro-2-deoxy-D-glucose] | 114 | – |
| CN1C2CCC1CC(OC(c1ccccc1)c1ccc(Cl)cc1)C2.Cl (stereo not drawn) [Compound 347, 4'-Chloro-3-alpha-(diphenylmethoxy)tropane hydrochloride] | 15 | 85 |
| c1ccc(C2CC2)c(OCC2=NCCN2)c1 [Compound 348, Cirazoline hydrochloride] | 74 | – |
| N[C@H](C(=O)O)[C@H]1C[C@@H]1C(=O)O [Compound 350, (2S,1'S,2'S)-2-(carboxycyclopropyl)glycine] | 97 | – |
| O=C(c1ccc2c(c1)OCCO2)N1CCCCC1 [Compound 352, CX 546] | 97 | – |
| CNC(=O)[C@H]1O[C@@H](n2cnc3c(NCc4cccc(I)c4)nc(Cl)nc32)[C@H](O)[C@@H]1O [Compound 353, Chloro-IB-MECA] | 120 | – |
| O=[N+]([O-])c1cc2nc(O)c(O)nc2cc1[N+](=O)[O-] [Compound 355, DNQX] | 100 | – |
| C[C@@H]1O[C@@H](O[C@H]2C[C@@H](O)[C@]3(CO)[C@H]4[C@H](O)C[C@]5(C)[C@@H]([C@@H]6COC(=O)C6)CC[C@]5(O)[C@@H]4CC[C@]3(O)C2)[C@H](O)[C@H](O)[C@H]1O [Compound 356, Dihydroouabain] | 56 | – |
| CC(CCc1ccc(O)cc1)NCCc1ccc(O)c(O)c1 (stereo not shown) [Compound 357, Dobutamine hydrochloride] | 98 | – |
| CC(C)[C@H]1CN[C@H](C(=O)O)[C@H]1CC(=O)O [Compound 358, Dihydrokainic acid] | 94 | – |
| C[N+](C)(C)CCCCCCCCCC[N+](C)(C)C.[Br-].[Br-] [Compound 359, Decamethonium dibromide] | 98 | – |
| Nc1ncnc2c1ncn2[C@@H]1O[C@H](COP(=O)(O)OP(=O)(O)OP(=O)(O)OP(=O)(O)OC[C@H]2O[C@@H](n3cnc4c(N)ncnc43)[C@H](O)[C@@H]2O)[C@@H](O)[C@H]1O [Compound 360, P1,P4-Di(adenosine-5')tetraphosphate triammonium] | 75 | – |
| N=C(N)N1CCc2ccccc2C1 [Compound 361, Debrisoquin sulfate] | 86 | – |
| Cc1cn([C@H]2C=C[C@@H](CO)O2)c(=O)[nH]c1=O [Compound 362, 2',3'-didehydro-3'-deoxythymidine] | 99 | – |
| O=C(CCCN1CC=C(n2c(=O)[nH]c3ccccc32)CC1)c1ccc(F)cc1 [Compound 363, Droperidol] | 58 | – |

| Compound | Compound effect (percent receptor signaling in presence of test compound, relative lux units relative to the SCH23390 control) | % of the SCH23390 effect (percent inhibition of receptor response relative to the SCH23390 control) [%] |
| --- | --- | --- |
| COC(=O)[C@@H](N)Cc1ccc(O)c(O)c1.Cl [Compound 364, L-3,4-Dihydroxyphenylalanine methyl ester hydrochloride] | 90 | – |
| OC[C@H]1NC[C@@H](O)[C@@H]1O [Compound 365, 1,4-Dideoxy-1,4-imino-D-arabinitol] | 103 | – |
| O=[N+]([O-])c1ccc(O[C@@H]2O[C@H](CO)[C@@H](O)[C@H](O)[C@H]2F)c([N+](=O)[O-])c1 [Compound 366, 2,4-Dinitrophenyl 2-fluoro-2-deoxy-beta-D-glucopyranoside] | 75 | – |
| COc1ccc([C@@H]2Sc3ccccc3N(CCN(C)C)C(=O)[C@@H]2OC(C)=O)cc1 [Compound 369, Diltiazem hydrochloride] | 107 | – |
| Br.COc1ccc2c(c1)[C@]13CCCC[C@@H]1[C@H](C2)N(C)CC3.O [Compound 370, Dextromethorphan hydrobromide monohydrate] | 102 | – |
| O=C(OCCN1CCCCC1)c1c[nH]c2ccccc12 [Compound 371, SB 203186] | 84 | – |
| CN1C[C@H](C(=O)N[C@]2(C)O[C@@]3(O)[C@@H]4CCCN4C(=O)[C@H](Cc4ccccc4)N3C2=O)C[C@@H]2c3cccc4[nH]cc(c34)C[C@H]21 [Compound 372, Dihydroergotamine methanesulfonate] | 46 | – |
| c1ccc2c(c1)[I+]c1ccccc1-2 [Compound 373, Diphenyleneiodonium chloride] | 36 | – |
| CC(=O)C(C)=O [Compound 375, 2,3-Butanedione] | 88 | – |
| N[C@H](C(=O)O)c1cc(O)cc(O)c1 [Compound 377, (S)-3,5-Dihydroxyphenylglycine] | 93 | – |
| Cc1cc(N)c2ccccc2[n+]1CCCCCCCCCC[n+]1c(C)cc(N)c2ccccc21 [Compound 378, Dequalinium dichloride] | 73 | – |
| CN(C)CCOC(C)(c1ccccc1)c1ccccn1 (stereo not shown) [Compound 379, Doxylamine succinate] | 85 | – |
| CNCCCN1c2ccccc2CCc2ccccc21 [Compound 380, Desipramine hydrochloride] | 29 | – |
| O=C1NC(=O)C(c2ccccc2)(c2ccccc2)N1 [Compound 382, 5,5-Diphenylhydantoin] | 96 | – |
| O=P(O)(O)C(Cl)(Cl)P(=O)(O)O [Compound 384, Clodronic acid] | 83 | – |
| O=C1NC(=O)C(c2ccccc2)(c2ccccc2)N1 [Compound 385, Phenytoin sodium] | 77 | – |
| CC(C)NC[C@H](O)COc1cccc2[nH]ccc12 [Compound 387, S(-)-Pindolol] | 91 | – |
| COc1cc(C(=O)OCCCN2CCCN(CCCOC(=O)c3cc(OC)c(OC)c(OC)c3)CC2)cc(OC)c1OC [Compound 389, Dilazep hydrochloride] | 62 | – |
| C[C@]12CC[C@H](OS(=O)(=O)[O-])CC1=CC[C@@H]1[C@@H]2CC[C@]2(C)C(=O)CC[C@@H]12.[Na+] [Compound 390, Dehydroisoandrosterone 3-sulfate sodium] | 94 | – |
| Cn1c(=O)[nH]c2ncn(C)c2c1=O [Compound 391, 1,7-Dimethylxanthine] | 94 | – |
| COC1=C(OC)C(=O)c2ccccc2C1=O [Compound 392, 2,3-Dimethoxy-1,4-naphthoquinone] | 45 | – |

Same assay, conditions: 10 µM compound, 300 nM dopamine, 2 hr; hit = compound effect <20

| Compound | Compound effect (percent receptor signaling in presence of test compound, relative lux units relative to the SCH23390 control) [%] |
| --- | --- |
| CS(=O)(=O)O.Cn1cc(C(F)(F)F)nc1-c1ccc(OCC(O)CNCCOc2ccc(O)c(C(N)=O)c2)cc1 (stereo not shown) [Compound 349, CGP 20712A methanesulfonate] | 92 |
| N#Cc1cc2nc([O-])c([O-])nc2cc1[N+](=O)[O-].[Na+].[Na+] [Compound 351, CNQX disodium] | 91 |
| COc1cccc(OC)c1OCCNCC1COc2ccccc2O1.Cl (stereo not shown) [Compound 354, WB-4101 hydrochloride] | 101 |
| OC[C@H]1O[C@@H](n2cnc3ccccc32)[C@H](O)[C@@H]1O [Compound 367, D-ribofuranosylbenzimidazole] | 24 |
| CN(C)C(=O)N=NC(=O)N(C)C [Compound 376, N,N,N',N'-Tetramethylazodicarboxamide] | 93 |
| CN(C)C(N)=NCCC[C@H](N)C(=O)O.Cl [Compound 383, N^G,N^G-Dimethylarginine hydrochloride] | 106 |

Source: article PMC3265452 (PLoS Neglected Tropical Diseases, 2012)
